Data set [1] in a line: Dissolution of sample in 1% DMSO-containing PBS. The class given is physicochemical. The following applies: final concentration of 1.5 mM (#24). The method, then: To 20 mg of RebC, 21 μL of DMSO (manufactured by FUJIFILM Wako Pure Chemical Corporation, model number: 037-24053) was added. The mixture was then stirred by vortex and allowed to stand for several hours to obtain a stock solution having a RebC concentration of 1,000 mM. The obtained stock solution and PBS were used to prepare a 10 mM solution.
The 10 mM solution was diluted as needed with 1% DMSO-containing PBS to obtain Sample G-1 mM to Sample G-10 mM. The concentrations of RebC are described in Table 1.
For Sample B processed, final concentrations of 0.025 mM (#11) and 0.05 mM (#12) were added to the concentrations to be tested (0.1 to 2.5 mM).

Another data set deals with H716. Description: GLP-1 secretion amount of sweeteners, Experimental Example 1. The class given is cell-based, human. The following applies: H716, stock solution added, quantitation after further 24 hours, PBS as negative control, FIG. 1. As to the method: RebA, RebB, RebM, RebN, RebD, RebC, MogV, and stevioside were examined for their GLP-1 secretion-promoting effects. Specifically, the amount of GLP-1 secretion was measured by the following procedures.
Each test substance B, C, D, E, F, G, I, or J vas dissolved in PBS (Thermo Fisher Scientific Inc.) (Cat. No. 14190250) to obtain a stock solution. The concentration of the stock solution is shown below:
B (RebA); 5 mM, C (RebB); 1M, D (RebM); 2.5 mM, E (RebN); 1M, F (RebD); 2.5 mM, G (RebC); 2.5 mM, I (MogV); 1M, J(stevioside);1M
H716 (ATCC) (Cat. No. ATCC® CCL-251) was cultured in RPMI 1640 (10% FBS ((Thermo Fisher Scientific Inc.) (Cat. No. 10439024), 1 mM Sodium Pyruvate) in an incubator at 37° C., 5% CO2.
The preculture was performed for 2 weeks, and the cells were sufficiently recovered, and then cell stocks were prepared.
Cells were seeded in 96-well plates at 2×10^5 cells/90 μL (high) per well (N=4). At this time, the content of FBS in the medium was lowered to 0.5% to suppress cell proliferation.
After 24 hours, the sample at the highest concentration (i.e., stock solution) was added by 10 each.
After further 24 hours, quantitation of GLP-1 was performed. Specific procedures were followed the user guide of Human GLP-1 (7-36 amide) immunoassay kit (Cat. No. AL359) (Lot number 2361115) provided by PerkinElmer, Inc. PBS was used as a negative control (no sample).

The nature of data set [2]: Measurement of surface tension by plate method. The class given is physicochemical. The following applies: compared with other glycosides. The method, then:
Surface tension Q is measured by a plate method. For example, a glycoside sweetener, which is a test substance, is added in an amount to have Brix 10 on a sucrose basis to prepare an aqueous solution. The surface tension of the prepared aqueous solution is measured by a plate method using an automatic surface tension meter (CBVP-Z type, manufactured by Kyowa Interface Science Co., Ltd).
Aqueous solutions containing RebA, RebD, and RebM (commercially available products) each were prepared. The contents of RebA, RebD, and RebM were aligned to Brix 10 on a sucrose basis. That is, the contents of RebA, RebD, and RebM were 333 ppm, 351 ppm, and 351 ppm, respectively. The surface tension of the obtained aqueous solution was measured by a plate method using an automatic surface tension meter (CBVP-Z type, manufactured by Kyowa Interface Science Co., Ltd). Water was used as a control and tested in the same manner.

Data set [3] can be described thus: Distribution ratio between pure water and toluene. The class given is physicochemical. The following applies: organic layer and aqueous layer could not be separated. The method, then: After each about 100 mL of pure water and toluene was charged into a separatory funnel, 30 mg of each steviol glycoside was added. The separatory funnel was sealed to avoid liquid leakage, and stirred with shaking using a shaker for about 30 minutes, and then allowed to stand. When the liquid layer was separated into two layers, the distribution ratio was measured by LCMS after sampling was performed from each layer.

As to rebaudioside C [RebC], the dissolution of sample entry in data set [1] was “not able to be dissolved”. Besides, the “amount of GLP-1 secretion compared with no sample” value (“amount … compared with no sample” below) in the data set with H716 is given as “significantly larger amounts of GLP-1 secretion than no sample”. As to `C=C1C[C@@]23CC[C@H]4[C@@](C)(CCC[C@@]4(C)C(=O)O[C@@H]4O[C@H](CO)[C@@H](O)[C@H](O)[C@H]4O)[C@@H]2CC[C@]1(O[C@@H]1O[C@H](CO)[C@@H](O)[C@H](O[C@@H]2O[C@H](CO)[C@@H](O)[C@H](O)[C@H]2O)[C@H]1O[C@@H]1O[C@H](CO)[C@@H](O)[C@H](O)[C@H]1O)C3` [RebA, Rebaudioside A], the “amount … compared with no sample” value in the data set with H716 was “significantly larger amounts of GLP-1 secretion than no sample”. Besides, the “surfactant effect (surface tension)” value in data set [2] is recorded as “higher than that of other glycosides”. For the same compound, the “emulsification phenomenon when measuring the distribution ratio” value in data set [3] was “had an emulsification phenomenon”. As for rebaudioside B [RebB], in the data set with H716, the “amount … compared with no sample” value was “significantly larger amounts of GLP-1 secretion than no sample”. With `C[C@H](CC[C@@H](O[C@@H]1O[C@H](CO[C@@H]2O[C@H](CO)[C@@H](O)[C@H](O)[C@H]2O)[C@@H](O)[C@H](O)[C@H]1O[C@@H]1O[C@H](CO)[C@@H](O)[C@H](O)[C@H]1O)C(C)(C)O)[C@H]1CC[C@@]2(C)[C@@H]3CC=C4[C@@H](CC[C@H](O[C@@H]5O[C@H](CO[C@@H]6O[C@H](CO)[C@@H](O)[C@H](O)[C@H]6O)[C@@H](O)[C@H](O)[C@H]5O)C4(C)C)[C@]3(C)[C@H](O)C[C@]12C` [MogV, mogroside V], in the data set with H716, the “amount … compared with no sample” value is on record as “significantly larger amounts of GLP-1 secretion than no sample”. The same measure, in the same setting: the entry for `C=C1C[C@@]23CC[C@H]4[C@@](C)(CCC[C@@]4(C)C(=O)O[C@@H]4O[C@H](CO)[C@@H](O)[C@H](O)[C@H]4O)[C@@H]2CC[C@]1(O[C@@H]1O[C@H](CO)[C@@H](O)[C@H](O)[C@H]1O[C@@H]1O[C@H](CO)[C@@H](O)[C@H](O)[C@H]1O)C3` [stevioside, Stevioside] is “significantly larger amounts of GLP-1 secretion than no sample”.

The record behind these values is patent US20220211731A1, “COMPOSITION FOR PROMOTING GLP-1 SECRETION” (SUNTORY HOLDINGS LIMITED, priority 2019, published 2022).
